Laboratory results published in patent publication US20260041744A1, “Methods for Treating Pompe Disease” (Amicus Therapeutics, Inc., priority 2022, published 2026).

Assays:
[1] = system: adult subjects with late-onset Pompe disease (LOPD); assay: Study ATB200-03 (PROPEL): 6-minute walk test (6MWD); format: in vivo, human
Protocol: Efficacy Analyses. The primary efficacy endpoint (i.e., change from baseline to Week 52 in 6MWD) was analyzed using a parametric analysis of covariance (ANCOVA) model to compare between the new treatment and the control. […] However, the baseline 6MWD could not be used in the model twice (both as a continuous and a categorical variable) due to the expected high point biserial correlation between them. Thus, the 6MWD continuous variable remained in the model but the categorical 6MWD was removed.
The test for the primary endpoint was conducted first at the 1-sided 0.025 significance level, and if significant, the ordered key secondary endpoints were similarly tested at the same significance level. The statistical significance of the key secondary endpoints was interpreted following a hierarchical testing order, each at the 1-sided alpha level of 0.025. […] Primary analyses of efficacy were performed using the mixed-effect model for repeated measures (MMRM) for 6MWD in Intent-to-treat Observed Population (ITT) that includes all available, observed data without any missing data imputation (ITT-OBS) and analysis of covariance (ANCOVA) for all other endpoints in the Intent-to-Treat-Last Observation Carried Forward (ITT-LOCF) Population. A nonparametric randomization based ANCOVA was specified as the first sensitivity analysis for 6MWD and FVC. […] For the purposes of data presentation in this document, 2-sided p-values are reported hereafter, except as otherwise noted.
Analysis of 6MWD was performed using an MMRM model with actual time point of assessments on the ITT-OBS and excluding the outlier Subject 4005-2511. Specifically, the dependent variable is the change from baseline in the assessment. Independent variables include the fixed, categorical effects of treatment, ERT status, and gender, as well as the fixed, continuous covariates of time of assessment (days), baseline 6MWD, baseline age, baseline weight, and baseline height, and the treatment-by-time interaction. A random intercept of subject is also included in the model. Change from baseline at Week 52 for each treatment group and the difference between treatment groups were then estimated with the LS means at Day 364, together with the 95% CIs.

[2] = system: adult subjects with late-onset Pompe disease (LOPD); assay: Study ATB200-03 (PROPEL): GSGC total score; format: in vivo, human; settings: for CHG to Week 52 in GSGC total score, LS Mean: MMRM, actual time point of assessments, decrease indicates improvement; for GSGC total score CHG, LS means (SE): Week 52, ANCOVA
Protocol: The test for the primary endpoint was conducted first at the 1-sided 0.025 significance level, and if significant, the ordered key secondary endpoints were similarly tested at the same significance level. […] A nonparametric randomization based ANCOVA was specified as the first sensitivity analysis for 6MWD and FVC. […] For the purposes of data presentation in this document, 2-sided p-values are reported hereafter, except as otherwise noted.

[3] = Baseline, ITT, ERT-naïve Population excluding Subject 4005-2511
[4] = Week 52-LOCF, ERT-experienced Population
[5] = Week 52-LOCF, ITT excluding Subject 4005-2511
[6] = Week 52-LOCF, ITT, ERT-naïve Population excluding Subject 4005-2511
[7] = Week 52-Observed, ERT-experienced Population
[8] = Week 52-Observed, ITT excluding Subject 4005-2511
[9] = Week 52-Observed, ITT, ERT-naïve Population excluding Subject 4005-2511
[10] = Week 52-LOCF, ERT-naïve Subjects excluding Subject 4005-2511

## alglucosidase alfa [reference compound]
[1]; [3]
  6MWD Absolute Value, Mean: 420.94 meters
  6MWD Absolute Value, Median: 385.50 meters
[1]; ERT switch (ERT-experienced) population
  6MWD CFBL at Week 52: 0.0 m
[1]; ERT switch (ERT-experienced) population, listed as Alglucosidase alfa
  6MWD CFBL at Week 52: 0.0 (7.2) m
[1]; ERT treatment naive population
  6MWD CFBL at Week 52: 38 m
[1]; ERT treatment naive population, listed as Alglucosidase alfa
  6MWD CFBL at Week 52: +38.3 (11.1) m
[1]; ERT-experienced Population (n=95)
  mean (SD) change in 6MWD from baseline to Week 52: 0.7 (39.84) meters
[1]; ERT-naïve Population excluding Subject 4005-2511 (n=27)
  mean (SD) change in 6MWD from baseline to Week 52: 38.3 (29.32) meters
[1]; ITT population excluding Subject 4005-2511
  mean (SD) change in 6MWD from baseline to Week 52: 8.0 (40.56) meters
[1]; ITT-OBS excluding Subject 4005-2511, Week 52
  6MWD LS mean improvement from baseline, MMRM with actual time point of assessments: 8.3 m
[1]; ITT-OBS, ERT-naïve Population excluding Subject 4005-2511
  Change in 6MWD baseline to Week 52, LS means (SE) from MMRM: 39.47 (17.15) meters
[1]; MMRM, actual time point of assessments, ITT-OBS Population excluding Subject 4005-2511 (overall)
  CHG to week 52 in 6MWD, LS Mean (95% CI): 8.3 (−2.2, 18.8) m
[1]; MMRM, actual time point of assessments, ITT-OBS excluding Subject 4005-2511, ERT-naïve Subjects
  CHG to Week 52 in 6MWD, LS Mean: 52.7
[1]; MMRM, actual time point of assessments, ITT-OBS, ERT-experienced Subjects
  CHG to Week 52 in 6MWD, LS Mean: 0.9
[1]; [4]
  6MWD Absolute Value, Mean (SD): 334.60 (129.506) meters
  6MWD Absolute Value, Median: 339.03 meters
  6MWD CHG, Mean (SD): −0.02 (39.345) meters
  6MWD CHG, Median: −8.93 meters
[1]; [5]
  6MWD Absolute Value, Mean: 358.19 meters
  6MWD Absolute Value, Median: 370.00 meters
  6MWD CHG, Mean: 7.24 meters
  6MWD CHG, Median: 1.40 meters
[1]; [6]
  6MWD Absolute Value, Mean: 459.28 meters
  6MWD Absolute Value, Median: 446.50 meters
  6MWD CHG (change from baseline), Mean: 38.34 meters
  6MWD CHG (change from baseline), Median: 33.50 meters
[1]; [7]
  6MWD Absolute Value, Mean (SD): 335.66 (131.666) meters
  6MWD Absolute Value, Median: 348.00 meters
  6MWD CHG, Mean (SD): 0.70 (39.841) meters
  6MWD CHG, Median: −8.65 meters
[1]; [8]
  6MWD Absolute Value, Mean: 359.70 meters
  6MWD Absolute Value, Median: 371.75 meters
  6MWD CHG, Mean: 8.02 meters
  6MWD CHG, Median: 3.15 meters
[1]; [9]
  6MWD Absolute Value, Mean: 459.28 meters
  6MWD Absolute Value, Median: 446.50 meters
  6MWD CHG (change from baseline), Mean: 38.34 meters
  6MWD CHG (change from baseline), Median: 33.50 meters
[1]; Week 52, ANCOVA, ITT-LOCF excluding outliers with externally studentized residuals >3
  LS Mean (SE), Change from Baseline in 6MWD: 6.95 (6.951) meters
[1]; Week 52, MMRM, ITT-OBS excluding Subject 4005-2511
  6MWD CHG, LS mean (SE): 7.10 (7.043) meters
[1]; Week 52, MMRM, ITT-OBS, ERT-experienced Population
  6MWD CHG, LS means (SE): 0.59 (7.569) meters
[1]; overall ERT switch + ERT naïve population
  6MWD CFBL at Week 52: 7 m
[1]; overall ERT switch + ERT naïve population, listed as Alglucosidase alfa
  6MWD CFBL at Week 52: +7.2 (6.6) m
[1]; overall ERT switch + ERT naïve population, listed as alglucosidase alfa/placebo
  6MWD CFBL at Week 52: 7 m
[2]; Baseline, ITT, ERT-naïve Subjects excluding Subject 4005-2511
  GSGC Total Score Absolute Value, Median: 9.00
[2]; Baseline, ITT, ERT-naïve Subjects excluding Subject 4005-2511, 4 points (normal) to 27 points (worst)
  GSGC Total Score Absolute Value, Mean: 10.86
[2]; ERT-experienced Population
  mean (SD) change in GSGC total score from baseline to Week 52: 0.6 (1.83)
[2]; ERT-naïve excluding Subject 4005-2511
  mean (SD) change in GSGC total score from baseline to Week 52: 1.3 (1.80)
[2]; ITT-LOCF, ERT-naïve Subjects excluding Subject 4005-2511
  Change in GSGC total score baseline to Week 52, LS means (SE) from ANCOVA: 0.91 (1.042)
[2]; ITT-OBS excluding Subject 4005-2511 (overall)
  CHG to Week 52 in GSGC total score, LS Mean: 0.8
[2]; ITT-OBS excluding Subject 4005-2511, ERT-naïve Subjects
  CHG to Week 52 in GSGC total score, LS Mean: 1.3
[2]; ITT-OBS, ERT-experienced Subjects
  CHG to Week 52 in GSGC total score, LS Mean: 0.5
[2]; [4]
  GSGC Total Score Absolute Value, Mean: 15.87
  GSGC Total Score Absolute Value, Median: 17.00
  GSGC Total Score CHG, Mean: 0.61
  GSGC total score CHG, Median: 0.00
[2]; [10]
  GSGC Total Score Absolute Value, Mean: 12.14
  GSGC Total Score Absolute Value, Median: 10.00
  GSGC Total Score CHG (change from baseline), Mean: 1.29
  GSGC Total Score CHG (change from baseline), Median: 1.00
[2]; [5]
  GSGC Total Score Absolute Value, Median: 16.00
  GSGC total score Absolute Value, Mean (SD): 15.00 (4.488)
  GSGC total score CHG, Mean (SD): 0.77 (1.813)
  GSGC total score CHG, Median: 0.50
[2]; ITT-LOCF excluding Subject 4005-2511
  GSGC total score CHG, LS means (SE): 0.847 (0.440)
[2]; ITT-LOCF, ERT-experienced Population
  GSGC total score CHG, LS means (SE): 0.65 (0.494)
[2]; overall (and ERT-experienced) population, week 52
  GSGC outcome: worsening
[2]; overall population, negative = improvement, listed as alglucosidase alfa and placebo
  mean (SD) change in GSGC total score from baseline to Week 52: 0.77 (1.8)
[2]; overall population, negative = improvement, listed as alglucosidase alfa/placebo
  mean (SD) change in GSGC total score from baseline to Week 52: 0.77 (1.81)
